Data published in patent US6416949B1, “Method of synthesizing diverse collections of oligomers” (Affymax, Inc., priority 1991, dated 2002).

Key:
Monoclonal antibody 3E7 [1] = experiment: magnetic selection of peptide beads by microbead-conjugated 3E7, analysed by flow cytometry; type: binding; details: 16 hr incubation at 4 degrees C in PBS, high strength magnet
Experimental: After a 16 hr incubation at 4 degrees C, beads which bind the 3E7 antibody are selected using a high strength magnet. The selected beads are then analyzed by flow cytometry.

Monoclonal antibody 3E7 [2] = experiment: staining of peptide beads with fluorescently labeled antibody 3E7 and FACS sorting; type: binding; details: peptide on oligonucleotide-tagged beads
Experimental: The beads coupled with the 95 mer and YGGFL were mixed with the beads that were coupled to the 110 mer and F in the ratio of 1:20. Thus, 0.1 mg of 95 mer/YGGFL beads (2 million beads) were mixed with 2.0 mg of the 110 mer/Phe beads (40 million beads). The mixture was suspended in blocking buffer (PBS, 1% BSA, and 0.05% Tween-20) and incubated at room temperature for 1 hr. The beads were next pelleted by centrifugation and resuspended in a solution of an FITC-labeled monoclonal antibody 3E7 that binds the peptide YGGFL (1 μg/mL). The suspension was incubated 0.5 hr on ice and then centrifuged to isolate the bead pellet.
The beads were resuspended in PBS for delivery into the fluorescence activated cell sorting (FACS) instrument (Becton Dickinson FACSORT Plus). Beads that had bound to the fluorescently labeled antibody were identified by their acquired fluorescence, and fluorescent beads were isolated by sorting into PCR tubes. One, ten, or one hundred fluorescent beads were sorted into each PCR tube. […]
The beads were resuspended in PBS for delivery into the fluorescence activated cell sorting (FACS) instrument (Becton Dickinson FACSORT Plus). Beads that had bound to the fluorescently labeled antibody were identified by their acquired fluorescence (see FIG. 10), and homogeneous samples of either fluorescent or non-fluorescent beads were isolated by sorting into PCR tubes. […]

Monoclonal antibody 3E7 [3] = details: solution assay, MAb 3E7; read-out: equilibrium binding constant (Kd); cited from earlier work

pentapeptide L-Tyr-Gly-Gly-L-Phe-L-Leu, ligand of monoclonal antibody 3E7 [YGGFL]
selection of peptide-bearing beads by 3E7 antibody (Monoclonal antibody 3E7 [1]): only beads displaying the peptide YGGFL are selected | binding of the peptide by fluorescently labeled antibody 3E7 (Monoclonal antibody 3E7 [2]): high affinity | Kd (Monoclonal antibody 3E7 [3]): 6.6 nM
